Test results taken from article PMC7024217, “Study on Structure Activity Relationship of Natural Flavonoids against Thrombin by Molecular Docking Virtual Screening Combined with Activity Evaluation In Vitro” (Molecules, 2020).
Read-outs that look alike come from different tables or passages of the source.

Molecular target: T1, bovine thrombin (Bos taurus, UniProt P00735)
T1 construct: bovine thrombin and argatroban were purchased from Sigma-Aldrich; purchased Sigma-Aldrich (St. Louis, MO, USA)
Test: Thrombin inhibitory activity assay (chromogenic substrate S-2238);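 further: microplate absorbance read-out, thrombin preincubated with test compound 5 min at 37 °C in PBS pH 7.2-7.4, inhibition relative to blank without compound after subtracting compound-only background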
Assay type: biochemical
Conditions: for Group (inhibitor class) / inhibitor class: class by anti-thrombin IC50

[1] = Table 1, anti-thrombin, substrate S-2238 4 mg/mL, read-out: IC50
[2] = Table 2, anti-thrombin, read-out: IC50 ±SD
[3] = thrombin inhibition, substrate 4 mg/mL, read-out: IC50

| Compound | Group (inhibitor class) (Table 2) | IC50 [1] [µM] | inhibitor class | also measured |
| --- | --- | --- | --- | --- |
| COc1cc(-c2oc3cc(O)cc(O)c3c(=O)c2O)ccc1O [Isorhamnetin] | Strong inhibitor | – | – | – |
| O=C(O)[C@H]1O[C@@H](Oc2cc3oc(-c4ccccc4)cc(=O)c3c(O)c2O)[C@H](O)[C@@H](O)[C@@H]1O [Baicalin] | Strong inhibitor | 88.6 ± 8.2 | – | IC50 [2]: 88.6 ± 8.2 µM |
| O=c1c(O)c(-c2ccccc2)oc2cc(O)cc(O)c12 [Galangin] | Moderate inhibitor | 159 | moderate inhibitors (compounds with IC50 value ranging from 100 μM to 200 μM were considered as moderate inhibitors) | IC50 [2]: 159 µM |
| O=c1cc(-c2ccc(O)cc2)oc2cc(O)cc(O)c12 [Apigenin] | Strong inhibitor | – | – | – |
| COc1c(O[C@@H]2O[C@H](C(=O)O)[C@@H](O)[C@H](O)[C@H]2O)cc(O)c2c(=O)cc(-c3ccccc3)oc12 [Wogonoside] | – | > 500 | – | – |
| O=c1cc(-c2ccc(O)c(O)c2)oc2cc(O)cc(O)c12 [Luteolin] | Moderate inhibitor | 146 ± 10 | moderate inhibitors (compounds with IC50 value ranging from 100 μM to 200 μM were considered as moderate inhibitors) | – |
| O=C(OC1Cc2c(O)cc(O)cc2OC1c1ccc(O)c(O)c1)c1cc(O)c(O)c(O)c1 (single isomer, unassigned; (-)) [(-)-Epicatechin gallate] | – | > 500 | – | – |
| COc1ccc([C@@H]2CC(=O)c3c(O)cc(O)cc3O2)cc1O [Hesperetin] | – | > 500 | – | – |
| COc1ccc([C@@H]2CC(=O)c3c(O)cc(O[C@@H]4O[C@H](CO)[C@@H](O)[C@H](O)[C@H]4O[C@@H]4O[C@@H](C)[C@H](O)[C@@H](O)[C@H]4O)cc3O2)cc1O [Neohesperidin] | – | > 500 | – | – |
| O=c1cc(-c2ccc(O)cc2)oc2cc(O)c(O)c(O)c12 [Scutellarein] | Strong inhibitor | 70.8 ± 2.7 | – | IC50 [2]: 70.8 ± 2.7 µM; IC50 [3]: < 100 µM |
| O=c1c(O)c(-c2ccc(O)cc2)oc2c(O)c(O)cc(O)c12 [Herbacetin] | Moderate inhibitor | 133 ± 4 | moderate inhibitors (compounds with IC50 value ranging from 100 μM to 200 μM were considered as moderate inhibitors) | IC50 [2]: 133 ± 4 µM |
| Oc1cc(O)c2c(c1)OC(c1cc(O)c(O)c(O)c1)C(O)C2 (single isomer, unassigned; (-)) [(-)-epigallocatechin] | – | – | – | IC50 (IC50): > 500 µM |
| C[C@@H]1O[C@@H](OC[C@H]2O[C@@H](Oc3c(-c4ccc(O)c(O)c4)oc4cc(O)cc(O)c4c3=O)[C@H](O)[C@@H](O)[C@@H]2O)[C@H](O)[C@H](O)[C@H]1O [Rutin] | – | 274 ± 23 | weak thrombin inhibitors (classified as weak thrombin inhibitors since their IC50 values ranged from 200 μM to 500 μM) | – |
| O=c1c(O)c(-c2ccc(O)c(O)c2)oc2cc(O)ccc12 [Fisetin] | Moderate inhibitor | 175 ± 18 | moderate inhibitors (compounds with IC50 value ranging from 100 μM to 200 μM were considered as moderate inhibitors) | – |
| C[C@@H]1O[C@@H](Oc2c(-c3ccc(O)c(O)c3)oc3cc(O)cc(O)c3c2=O)[C@H](O)[C@H](O)[C@H]1O [Quercitrin] | – | > 500 | – | – |
| C[C@@H]1O[C@@H](OC[C@H]2O[C@@H](Oc3cc(O)c4c(c3)O[C@H](c3ccc(O)cc3)CC4=O)[C@H](O)[C@@H](O)[C@@H]2O)[C@H](O)[C@H](O)[C@H]1O [Narirutin] | – | > 500 | – | – |
| Myricitrin | Strong inhibitor | – | – | – |
| O=c1cc(-c2ccc(O)c(O)c2)oc2cc(O[C@@H]3O[C@H](CO)[C@@H](O)[C@H](O)[C@H]3O)cc(O)c12 [Luteoloside] | Moderate inhibitor | 155 ± 18 | moderate inhibitors (compounds with IC50 value ranging from 100 μM to 200 μM were considered as moderate inhibitors) | IC50 [2]: 155 ± 18 µM |
| Oc1cc(O)c2c(c1)OC(c1ccc(O)c(O)c1)C(O)C2c1c(O)cc(O)c2c1OC(c1ccc(O)c(O)c1)C(O)C2 (stereo not drawn) [Proanthocyanidin B1] | – | > 500 | – | – |

| Compound | Group (inhibitor class) (Table 2) | IC50 [1] [µM] | inhibitor class | also measured |
| --- | --- | --- | --- | --- |
| O=c1cc(-c2ccccc2)oc2cc(O)c(O)c(O)c12 [Baicalein] | – | 249 ± 31 | weak thrombin inhibitors (classified as weak thrombin inhibitors since their IC50 values ranged from 200 μM to 500 μM) | – |
| O=c1c(O)c(-c2ccc(O)cc2)oc2cc(O)cc(O)c12 [Kaempferol] | Moderate inhibitor | 107 ± 2 | moderate inhibitors (compounds with IC50 value ranging from 100 μM to 200 μM were considered as moderate inhibitors) | IC50 [2]: 107 ± 2 µM |
| O=c1c(O)c(-c2ccc(O)cc2O)oc2cc(O)cc(O)c12 [Morin] | – | 237 ± 26 | weak thrombin inhibitors (classified as weak thrombin inhibitors since their IC50 values ranged from 200 μM to 500 μM) | – |
| O=c1c(O[C@@H]2O[C@H](CO)[C@@H](O)[C@H](O)[C@H]2O)c(-c2ccc(O)c(O)c2)oc2cc(O)cc(O)c12 [Isoquercitrin] | – | > 500 | – | – |
| Oc1cc(O)c2c(c1)O[C@H](c1ccc(O)c(O)c1)[C@H](O)C2 [Epicatechin] | – | > 500 | – | – |
| O=C1c2c(O)cc(O)cc2O[C@H](c2ccc(O)c(O)c2)[C@H]1O [Dihydroquercetin] | – | > 500 | – | – |
| COc1c(O)cc2oc(-c3ccc(O)cc3)cc(=O)c2c1O [Hispidulin] | Moderate inhibitor | 126 ± 6 | moderate inhibitors (compounds with IC50 value ranging from 100 μM to 200 μM were considered as moderate inhibitors) | IC50 [2]: 126 ± 6 µM |
| C[C@@H]1O[C@@H](O[C@H]2[C@H](Oc3cc(O)c4c(c3)O[C@H](c3ccc(O)cc3)CC4=O)O[C@H](CO)[C@@H](O)[C@@H]2O)[C@H](O)[C@H](O)[C@H]1O [Naringin] | – | 444 ± 59 | weak thrombin inhibitors (classified as weak thrombin inhibitors since their IC50 values ranged from 200 μM to 500 μM) | – |
| COc1cc(O)c2c(=O)cc(-c3ccc(O)cc3)oc2c1 [Genkwanin] | – | 212 ± 30 | weak thrombin inhibitors (classified as weak thrombin inhibitors since their IC50 values ranged from 200 μM to 500 μM) | IC50 [3]: 211 µM |
| COc1cc(-c2oc3cc(O)cc(O)c3c(=O)c2OC2OC(CO)C(O)C(O)C2OC2OC(C)C(O)C(O)C2O)ccc1O (stereo not drawn) [Isorhamnetin-3-O-neohesperidoside] | – | > 500 | – | – |
| COc1ccc([C@@H]2CC(=O)c3c(O)cc(O[C@@H]4O[C@H](CO[C@@H]5O[C@@H](C)[C@H](O)[C@@H](O)[C@H]5O)[C@@H](O)[C@H](O)[C@H]4O)cc3O2)cc1O [Hesperidin] | – | > 500 | – | – |
| COc1cc(-c2oc3cc(O)cc(O)c3c(=O)c2O[C@@H]2O[C@H](CO[C@@H]3O[C@@H](C)[C@H](O)[C@@H](O)[C@H]3O)[C@@H](O)[C@H](O)[C@H]2O[C@@H]2O[C@@H](C)[C@H](O)[C@@H](O)[C@H]2O)ccc1O [Typhaneoside] | – | > 500 | – | – |
| O=c1c(O)c(-c2ccc(O)cc2)oc2cc(O[C@@H]3O[C@H](CO)[C@@H](O)[C@H](O)[C@H]3O)cc(O)c12 [Kaempferol-7-O-β-D-glucopyranoside] | – | > 500 | – | – |
| O=C1c2c(O)cc(O)cc2O[C@H](c2cc(O)c(O)c(O)c2)[C@H]1O [Dihydromyricetin] | – | > 500 | – | – |
| COc1ccc(-c2cc(=O)c3c(O)cc(O)cc3o2)cc1O [Diosmetin] | Moderate inhibitor | – | moderate inhibitors (compounds with IC50 value ranging from 100 μM to 200 μM were considered as moderate inhibitors) | – |
| O=c1c(OC2OC(CO)C(O)C(O)C2O)c(-c2ccc(O)cc2)oc2cc(O)cc(O)c12 (stereo not drawn) [Astragaline] | – | 217 ± 5 | weak thrombin inhibitors (classified as weak thrombin inhibitors since their IC50 values ranged from 200 μM to 500 μM) | – |
| O=c1c(O)c(-c2ccc(O)c(O)c2)oc2cc(O)cc(O)c12 [Quercetin] | – | – | weak thrombin inhibitors (classified as weak thrombin inhibitors since their IC50 values ranged from 200 μM to 500 μM) | – |
| COc1cc(O)c2c(=O)cc(-c3ccc(O)c(O)c3)oc2c1 [Hydroxygenkwanin] | Strong inhibitor | 99.7 ± 5.5 | – | IC50 [2]: 99.7 ± 5.5 µM |
| O=C1C[C@@H](c2ccc(O)cc2)Oc2cc(O)cc(O)c21 [Naringenin] | – | > 500 | – | – |
